# Earlier results in patent US20050037366A1, “Individual drug safety” (priority 2003, published 2005).
# “Also recorded” adds a separate entry of the source.
# Assays:
# [1] = men with hormone-refractory prostate cancer
# [2] = in vivo
# ABCC2 (MRP2, cMOAT) = biological target: T1, ABCC2 (MRP2, cMOAT) (Rattus norvegicus, UniProt Q63120); conditions: rats; ABCC2-mediated mechanisms
# T1 construct: host or cells: rats (in vivo, liver canalicular membrane)
# [3] = rats
# T1 sequence (Q63120 whole entry): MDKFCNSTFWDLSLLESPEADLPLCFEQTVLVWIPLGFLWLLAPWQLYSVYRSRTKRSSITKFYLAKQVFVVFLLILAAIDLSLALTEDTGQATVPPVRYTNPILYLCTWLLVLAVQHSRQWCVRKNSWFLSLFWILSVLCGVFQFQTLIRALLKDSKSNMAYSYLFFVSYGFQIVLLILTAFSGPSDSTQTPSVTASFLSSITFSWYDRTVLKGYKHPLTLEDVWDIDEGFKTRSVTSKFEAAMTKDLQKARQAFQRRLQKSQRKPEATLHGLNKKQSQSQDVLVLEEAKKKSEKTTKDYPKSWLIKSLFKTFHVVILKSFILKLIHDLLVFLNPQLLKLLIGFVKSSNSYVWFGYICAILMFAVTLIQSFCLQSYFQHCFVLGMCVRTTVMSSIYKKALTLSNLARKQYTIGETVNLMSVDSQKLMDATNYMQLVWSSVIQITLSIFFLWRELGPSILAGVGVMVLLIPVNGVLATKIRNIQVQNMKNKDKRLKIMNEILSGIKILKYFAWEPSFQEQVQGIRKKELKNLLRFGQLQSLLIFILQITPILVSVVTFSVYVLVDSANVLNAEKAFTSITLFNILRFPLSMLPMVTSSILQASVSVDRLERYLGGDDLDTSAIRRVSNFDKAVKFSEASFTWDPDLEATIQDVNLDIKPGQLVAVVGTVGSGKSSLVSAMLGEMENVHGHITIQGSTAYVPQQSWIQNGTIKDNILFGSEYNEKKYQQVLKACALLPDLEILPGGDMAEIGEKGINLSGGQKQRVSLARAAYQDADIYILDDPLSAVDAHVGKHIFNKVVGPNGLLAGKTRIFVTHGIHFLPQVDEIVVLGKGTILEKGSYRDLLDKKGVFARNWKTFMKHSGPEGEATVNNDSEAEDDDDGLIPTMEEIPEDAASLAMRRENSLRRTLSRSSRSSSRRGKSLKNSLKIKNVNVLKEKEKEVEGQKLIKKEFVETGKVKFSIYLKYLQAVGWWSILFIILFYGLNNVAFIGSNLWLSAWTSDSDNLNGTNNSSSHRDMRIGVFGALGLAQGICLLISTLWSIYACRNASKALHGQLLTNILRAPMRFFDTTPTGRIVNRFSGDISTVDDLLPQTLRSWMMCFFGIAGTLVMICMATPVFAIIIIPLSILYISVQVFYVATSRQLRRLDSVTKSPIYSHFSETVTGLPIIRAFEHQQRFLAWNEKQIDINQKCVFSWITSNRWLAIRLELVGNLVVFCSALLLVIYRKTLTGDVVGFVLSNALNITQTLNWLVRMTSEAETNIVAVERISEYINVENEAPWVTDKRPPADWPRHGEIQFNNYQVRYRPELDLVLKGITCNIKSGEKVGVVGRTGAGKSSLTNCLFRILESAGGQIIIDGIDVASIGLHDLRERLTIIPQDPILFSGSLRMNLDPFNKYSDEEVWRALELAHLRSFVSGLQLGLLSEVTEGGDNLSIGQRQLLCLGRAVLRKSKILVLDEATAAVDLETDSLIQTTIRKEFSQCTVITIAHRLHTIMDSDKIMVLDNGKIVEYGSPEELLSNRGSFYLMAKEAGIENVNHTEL
structure (smiles),measurement,setting,value
CCCCN(CCCC)C(=O)CN1C[C@H](c2ccc3c(c2)OCO3)[C@@H](C(=O)O)[C@@H]1c1ccc(OC)cc1 [Atrasentan],ADRs in phase II study,[1],"headache, peripheral edema and rhinitis"
COc1ccccc1Oc1c(NS(=O)(=O)c2ccc(C(C)(C)C)cc2)nc(-c2ncccn2)nc1OCCO [Bosentan],ADR: liver injury,[2],can lead to liver injury; also recorded: can induce cholestatic liver injury
same,canalicular bile formation,"ABCC2 (MRP2, cMOAT)",alters canalicular bile formation
same,effect on Bsep-mediated canalicular bile salt transport,Bsep (ABCB 11),inhibition of Bsep-mediated canalicular bile salt transport
CCCC[C@@H](NC(=O)[C@@H](Cc1cn(C(=O)OC)c2ccccc12)NC(=O)[C@H](CC(C)(C)C)NC(=O)N1[C@H](C)CCC[C@@H]1C)C(=O)O [BQ-788],cerebral blood flow,[3],decrease of cerebral blood flow
